Assay results reported in patent US9115137B2, “2,3,4,5-tetrahydro-1H-pyrido[4,3-B]indole compounds and methods of use thereof” (priority 2008, dated 2015).

Tests used:
[1] = biological target: T1, human recombinant histamine H1 receptor (Homo sapiens, UniProt P35367); experiment: Histamine H1 radioligand binding ([3H]Pyrilamine); conditions: compound at 1 μM; CHO cells; read-out: Histamine Binding (1 μM) H1, percent inhibition of specific binding
T1 construct: expressed in transfected cells; host or cells: CHO cells
Procedure: To evaluate in radioligand binding assays the activity of compounds of the invention, human recombinant histamine H1 receptor expressed in Chinese hamster ovary (CHO) cells (De Backer, M. D. et al., Biochem. Biophys. Res. Comm. 197(3):1601, 1993) in a modified Tris-HCl buffer (50 mM Tris-HCl, pH 7.4, 2 mM MgCl2, 100 mM NaCl, 250 mM Sucrose) was used. Compounds of the invention were incubated with 1.2 nM [^3H]Pyrilamine for 180 minutes at 25° C. Non-specific binding was estimated in the presence of 1 μM pyrilamine. Receptor proteins were filtered and washed, the filters were then counted to determine [^3H]Pyrilamine specifically bound. Compounds were screened at 1 μM, using 1% DMSO as vehicle. Biochemical assay results are presented as the percent inhibition of specific binding in Table 5.

[2] = biological target: T2, human recombinant adrenergic α1D receptor (Homo sapiens, UniProt P25100); experiment: Adrenergic α1D radioligand binding ([3H]Prozosin); conditions: compound at 1 μM; HEK-293 cells; read-out: Adrenergic (1 μM) α1D, percent inhibition of specific binding
T2 construct: expressed in transfected cells; host or cells: HEK-293 cells
T2 sequence (P25100 1-572): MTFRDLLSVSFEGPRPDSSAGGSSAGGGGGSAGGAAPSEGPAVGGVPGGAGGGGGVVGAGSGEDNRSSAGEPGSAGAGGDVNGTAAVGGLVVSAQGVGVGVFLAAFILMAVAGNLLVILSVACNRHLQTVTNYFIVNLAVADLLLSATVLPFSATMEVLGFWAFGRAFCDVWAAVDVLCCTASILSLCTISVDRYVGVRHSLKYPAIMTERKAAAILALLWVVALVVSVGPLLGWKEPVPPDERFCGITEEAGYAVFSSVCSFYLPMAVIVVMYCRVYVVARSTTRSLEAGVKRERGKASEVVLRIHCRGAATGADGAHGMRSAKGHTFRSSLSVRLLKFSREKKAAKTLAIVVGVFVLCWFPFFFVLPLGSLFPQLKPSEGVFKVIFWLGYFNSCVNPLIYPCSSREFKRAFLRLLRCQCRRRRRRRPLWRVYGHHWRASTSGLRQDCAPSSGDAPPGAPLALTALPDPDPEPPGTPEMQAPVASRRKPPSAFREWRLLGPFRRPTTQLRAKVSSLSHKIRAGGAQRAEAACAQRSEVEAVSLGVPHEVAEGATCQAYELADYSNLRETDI
Procedure: To evaluate in radioligand binding assays the activity of compounds of the invention, human recombinant adrenergic α1D receptor expressed in human embryonic kidney (HEK-293) cells (Kenny, B. A. et al. Br. J. Pharmacol. 115(6):981, 1995) in a 50 mM Tris-HCl buffer, pH 7.4, was used. Compounds of invention were incubated with 0.6 nM [^3H]Prozosin for 60 minutes at 25° C. Non-specific binding was estimated in the presence of 10 μM phentolamine. Receptor proteins were filtered and washed, the filters were then counted to determine [^3H]Prozosin specifically bound. Compounds were screened at 1 μM or lower, using 1% DMSO as vehicle. Biochemical assay results are presented as the percent inhibition of specific binding in Table 6.

[3] = biological target: T3, human recombinant histamine H2 receptor (Homo sapiens, UniProt P25021); experiment: Histamine H2 radioligand binding ([125I]aminopotentidine); conditions: compound at 1 μM; CHO K1 cells; read-out: Histamine Binding (1 μM) H2, percent inhibition of specific binding
T3 construct: expressed in transfected cells; host or cells: CHO-K1 cells
Procedure: To evaluate in radioligand binding assays the activity of compounds of the invention, human recombinant histamine H2 receptor expressed in Chinese hamster ovary (CHO) K1 cells (Ruat, M., Proc. Natl. Acad. Sci. USA. 87(5):1658, 1990) in a 50 mM Phosphate buffer, pH 7.4 was used. Compounds of the invention were incubated with 0.1 nM [^125I]aminopotentidine for 120 minutes at 25° C. Non-specific binding was estimated in the presence of 3 μM Tiotidine. Receptor proteins were filtered and washed, the filters were then counted to determine [^125I]Aminopotentidine specifically bound. Compounds were screened at 1 μM, using 1% DMSO as vehicle. Biochemical assay results are presented as the percent inhibition of specific binding in Table 5.

[4] = biological target: T4, human recombinant serotonin (5-Hydroxytryptamine) 5-HT2C receptor (Homo sapiens, UniProt P28335); experiment: Serotonin 5-HT2C radioligand binding ([3H]Mesulergine); conditions: compound at 1 μM; CHO-K1 cells; read-out: Serotonin (1 μM) 5-HT2C, percent inhibition of specific binding
T4 construct: expressed in transfected cells; host or cells: CHO-K1 cells
T4 sequence (P28335 33-458): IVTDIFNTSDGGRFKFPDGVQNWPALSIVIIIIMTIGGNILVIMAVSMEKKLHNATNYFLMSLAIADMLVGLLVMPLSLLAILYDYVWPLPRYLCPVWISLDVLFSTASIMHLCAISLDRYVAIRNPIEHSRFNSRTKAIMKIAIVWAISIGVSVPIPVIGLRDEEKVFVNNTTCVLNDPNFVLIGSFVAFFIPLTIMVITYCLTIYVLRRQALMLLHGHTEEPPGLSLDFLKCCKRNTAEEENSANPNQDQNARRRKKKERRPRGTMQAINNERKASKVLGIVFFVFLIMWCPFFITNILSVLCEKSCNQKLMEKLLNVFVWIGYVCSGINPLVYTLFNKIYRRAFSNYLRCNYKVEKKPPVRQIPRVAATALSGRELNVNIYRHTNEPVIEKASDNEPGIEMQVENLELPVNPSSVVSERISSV
Procedure: To evaluate in radioligand binding assays the activity of compounds of the invention, human recombinant serotonin (5-Hydroxytryptamine) 5-HT2C receptor expressed in Chinese hamster ovary (CHO-K1) cells (Wolf, W. A. and Schutz, J. S., J. Neurochem. 69:1449, 1997) in a modified Tris-HCl buffer (50 mM Tris-HCl, pH 7.4, 0.1% Ascorbic Acid, 10 μM Pargyline) was used. Compounds of the invention were incubated with 1 nM [^3H]Mesulergine for 60 minutes at 25° C. Non-specific binding was estimated in the presence of 1 μM Mianserin. Receptor proteins were filtered and washed, the filters were then counted to determine [^3H]Mesulergine specifically bound. Compounds were screened at 1 μM or lower, using 1% DMSO as vehicle. Biochemical assay results are presented as the percent inhibition of specific binding in Table 7.

T1 sequence (P35367 whole entry): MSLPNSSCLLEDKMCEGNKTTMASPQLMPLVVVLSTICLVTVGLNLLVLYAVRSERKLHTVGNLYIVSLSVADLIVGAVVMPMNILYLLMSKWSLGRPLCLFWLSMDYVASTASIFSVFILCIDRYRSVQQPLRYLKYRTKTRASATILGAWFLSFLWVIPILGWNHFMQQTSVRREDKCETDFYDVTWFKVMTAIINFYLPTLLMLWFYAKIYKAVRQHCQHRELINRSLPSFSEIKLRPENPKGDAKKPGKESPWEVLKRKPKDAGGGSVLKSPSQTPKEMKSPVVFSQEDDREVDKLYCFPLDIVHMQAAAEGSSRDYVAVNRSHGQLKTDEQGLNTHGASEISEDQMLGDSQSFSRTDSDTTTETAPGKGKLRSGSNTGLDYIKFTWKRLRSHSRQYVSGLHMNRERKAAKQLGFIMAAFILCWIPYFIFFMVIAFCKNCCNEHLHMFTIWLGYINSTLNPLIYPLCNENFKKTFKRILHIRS
T3 sequence (P25021 whole entry): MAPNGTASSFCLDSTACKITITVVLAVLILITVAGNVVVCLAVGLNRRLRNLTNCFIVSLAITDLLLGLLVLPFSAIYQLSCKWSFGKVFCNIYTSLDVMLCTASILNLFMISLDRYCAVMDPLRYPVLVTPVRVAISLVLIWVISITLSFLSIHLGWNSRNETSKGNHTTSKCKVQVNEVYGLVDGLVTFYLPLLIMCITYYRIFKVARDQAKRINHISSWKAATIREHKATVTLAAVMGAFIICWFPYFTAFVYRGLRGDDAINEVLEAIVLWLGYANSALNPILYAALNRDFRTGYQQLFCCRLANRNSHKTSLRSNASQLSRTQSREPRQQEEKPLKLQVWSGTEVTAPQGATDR

| Structure (SMILES) | inhibition at 1 µM [1] [%] | inhibition at 1 µM [2] [%] | inhibition at 1 µM [3] [%] | inhibition at 1 µM [4] [%] |
| --- | --- | --- | --- | --- |
| CCNC(=O)CCn1c2c(c3cc(C)ccc31)CN(C)CC2 [Compound 2, N-ethyl-3-(1,2,3,4-tetrahydro-2,8-dimethylpyrido[4,3-b]indol-5-yl)propanamide] | 52 | 17 | 5 | -5 |
| Cc1ccc2c(c1)c1c(n2CCC(=O)NC2CCCCC2)CCN(C)C1 [Compound 3, N-cyclohexyl-3-(1,2,3,4-tetrahydro-2,8-dimethylpyrido[4,3-b]indol-5-yl)propanamide] | 2 | 45 | 23 | 29 |
| Cc1ccc2c(c1)c1c(n2CCC(=O)NC2CCCC2)CCN(C)C1 [Compound 4, N-cyclopentyl-3-(1,2,3,4-tetrahydro-2,8-dimethylpyrido[4,3-b]indol-5-yl)propanamide] | 60 | 64 | 20 | 36 |
| CCOC(=O)CCCn1c2c(c3cc(C)ccc31)CN(C)CC2 [Compound 5, ethyl 4-(1,2,3,4-tetrahydro-2,8-dimethylpyrido[4,3-b]indol-5-yl)butanoate] | 96 | 70 | 48 | 96 |
| CCNC(=O)CCCn1c2c(c3cc(C)ccc31)CN(C)CC2 [Compound 6, N-ethyl-4-(1,2,3,4-tetrahydro-2,8-dimethylpyrido[4,3-b]indol-5-yl)butanamide] | 46 | 0 | 0 | 45 |
| Cc1ccc2c(c1)c1c(n2CCNC(=O)OCC(Cl)(Cl)Cl)CCN(C)C1 [Compound 8, 2,2,2-trichloroethyl 2-(1,2,3,4-tetrahydro-2,8-dimethylpyrido[4,3-b]indol-5-yl)ethylcarbamate] | 101 | 72 | 74 | 99 |
| CCOC(=O)Cn1c2c(c3cc(Cl)ccc31)CN(C)CC2 [Compound 10, ethyl 2-(8-chloro-1,2,3,4-tetrahydro-2-methylpyrido[4,3-b]indol-5-yl)acetate] | 99 | 50 | 28 | 92 |
| CC(C)OC(=O)Cn1c2c(c3cc(Cl)ccc31)CN(C)CC2 [Compound 11, isopropyl 2-(8-chloro-1,2,3,4-tetrahydro-2-methylpyrido[4,3-b]indol-5-yl)acetate] | 101 | 38 | 7 | 71 |
| CN1CCc2c(c3cc(Cl)ccc3n2CC(=O)OC(C)(C)C)C1 [Compound 12, tert-butyl 2-(8-chloro-1,2,3,4-tetrahydro-2-methylpyrido[4,3-b]indol-5-yl)acetate] | 101 | 13 | 40 | 83 |
| CN1CCc2c(c3cc(Cl)ccc3n2CC(=O)OCc2ccccc2)C1 [Compound 13, benzyl 2-(8-chloro-1,2,3,4-tetrahydro-2-methylpyrido[4,3-b]indol-5-yl)acetate] | 96 | 55 | 51 | 91 |
| CN1CCc2c(c3cc(Cl)ccc3n2CC(=O)OCC2CCCCC2)C1 [Compound 14, cyclohexylmethyl 2-(8-chloro-1,2,3,4-tetrahydro-2-methylpyrido[4,3-b]indol-5-yl)acetate] | 98 | 72 | 89 | 94 |
| CN1CCc2c(c3cc(Cl)ccc3n2CC(=O)OC2CCCC2)C1 [Compound 15] | 99 | 58 | 47 | 94 |
| CC(C)OC(=O)CCn1c2c(c3cc(Cl)ccc31)CN(C)CC2 [Compound 17, isopropyl 3-(8-chloro-1,2,3,4-tetrahydro-2-methylpyrido[4,3-b]indol-5-yl)propanoate] | 96 | 73 | 64 | 91 |
| CN1CCc2c(c3cc(Cl)ccc3n2CCC(=O)OCc2ccccc2)C1 [Compound 19, benzyl 3-(8-chloro-1,2,3,4-tetrahydro-2-methylpyrido[4,3-b]indol-5-yl)propanoate] | 101 | 83 | 81 | 96 |
| CN1CCc2c(c3cc(Cl)ccc3n2CCC(=O)OCC2CCCCC2)C1 [Compound 20, cyclohexylmethyl 3-(8-chloro-1,2,3,4-tetrahydro-2-methylpyrido[4,3-b]indol-5-yl)propanoate] | 95 | 90 | 93 | 88 |
| CN1CCc2c(c3cc(Cl)ccc3n2CCC(=O)OC2CCCC2)C1 [Compound 21, cyclopentyl 3-(8-chloro-1,2,3,4-tetrahydro-2-methylpyrido[4,3-b]indol-5-yl)propanoate] | 98 | 88 | 82 | 100 |
| CCNC(=O)Cn1c2c(c3cc(C)ccc31)CN(C)CC2 [Compound 22, N-ethyl-2-(1,2,3,4-tetrahydro-2,8-dimethylpyrido[4,3-b]indol-5-yl)acetamide] | 85 | 23 | 11 | 81 |
| Cc1ccc2c(c1)c1c(n2CC(=O)NC(C)C)CCN(C)C1 [Compound 23, 2-(1,2,3,4-tetrahydro-2,8-dimethylpyrido[4,3-b]indol-5-yl)-N-isopropylacetamide] | 65 | 15 | 1 | 37 |
